Laboratory results reported in the Deep4Chem optical property database.
“And” between values parts separate entries of the source, which are not always exact repeats. Equal values may be shown once. One block for each compound: values may come before it.

Assay: photoluminescence quantum yield (fraction); solvent given as SMILES
[1] = in c1ccc2c(c1)c1ccccc1n2-c1ccc(-c2ccc(-n3c4ccccc4c4ccccc43)cc2)cc1
[2] = in c1cc(-c2cccc(-n3c4ccccc4c4ccccc43)c2)cc(-n2c3ccccc3c3ccccc32)c1

photoluminescence quantum yield (in C1CCOC1): 0.34
Compound: c1cc2ccc1-c1ccc(cc1)-c1sc(c3c1OCCO3)-c1ccc(cc1)-c1ccc(cc1)-c1sc(c3c1OCCO3)-c1ccc(cc1)-c1ccc(cc1)-c1sc-2c2c1OCCO2

photoluminescence quantum yield (in CC#N): 0.43
Compound: Cc1ccc2c(c1)nc1c(=O)n(C)c(=O)nc-1n2C

Compound: CC(=O)O[B-]1(OC(C)=O)OC(/C=C/c2cccc3ccccc23)=CC(/C=C/c2cccc3ccccc23)=[O+]1
photoluminescence quantum yield (in C1CCOC1): 0.75
photoluminescence quantum yield (in CC#N): 0.43
photoluminescence quantum yield (in CC(C)=O): 0.58
photoluminescence quantum yield (in CS(C)=O): 0.38
photoluminescence quantum yield (in Cc1ccccc1): 0.84
photoluminescence quantum yield (in ClC(Cl)Cl): 0.73
photoluminescence quantum yield (in ClCCl): 0.64

photoluminescence quantum yield (in ClCCl): 0.04
Compound: COc1ccc(C#Cc2ncc(-c3ccccc3)o2)cc1OC

photoluminescence quantum yield (in C1CCCCC1): 0.33
photoluminescence quantum yield (in C1CCOC1): 0.22
photoluminescence quantum yield (in C1COCCO1): 0.24
photoluminescence quantum yield (in CC#N): 0.21
photoluminescence quantum yield (in CCCCCC): 0.32
photoluminescence quantum yield (in CO): 0.17
photoluminescence quantum yield (in ClC(Cl)Cl): 0.24
Compound: F[B-]1(F)n2c(-c3ccccc3)cnc2-c2cccc[n+]21

Compound: CCN(CC)c1ccc2c(C#N)c(/C=C(\C#N)c3nc4ccccc4o3)c(=O)oc2c1
photoluminescence quantum yield (in C1COCCO1): 0.0328
photoluminescence quantum yield (in CC#N): 0.0658
photoluminescence quantum yield (in CCO): 0.0144
photoluminescence quantum yield (in CCOC(C)=O): 0.0434
photoluminescence quantum yield (in CO): 0.0121
photoluminescence quantum yield (in Cc1ccccc1): 0.101
photoluminescence quantum yield (in ClCCl): 0.105

photoluminescence quantum yield (in C1CCOC1): 0.11
Compound: F[Si](c1ccccc1)(c1ccccc1)c1cc2ccccc2c2ccccc12

photoluminescence quantum yield (in C1CCOC1): 0.96
Compound: c1ccc(-c2cnc3nn4ccccc4c3n2)cc1

photoluminescence quantum yield (in O): 0.3
Compound: N#Cc1c(N2CCCCC2)cc(-c2ccc3c(c2)OCO3)c2c1-c1cccc3cccc-2c13

Compound: CN(C)c1ccc(C#Cc2ccc(C=O)cc2)cc1
photoluminescence quantum yield (in C1CCCCC1): 0.363
photoluminescence quantum yield (in C1CCOC1): 0.131
photoluminescence quantum yield (in C1COCCO1): 0.254
photoluminescence quantum yield (in CC1CCCO1): 0.223
photoluminescence quantum yield (in CC#N): 0.012
photoluminescence quantum yield (in CC(C)=O): 0.047
photoluminescence quantum yield (in CC(C)CC(C)(C)C): 0.044
photoluminescence quantum yield (in CC(C)O): 0.017
photoluminescence quantum yield (in CCCCCCCCCCCCCCCC): 0.056
photoluminescence quantum yield (in CCCCCCCCCCCCCCCCCl): 0.093
photoluminescence quantum yield (in CCOC(C)=O): 0.174
photoluminescence quantum yield (in CCOCC): 0.201
photoluminescence quantum yield (in CN(C)C=O): 0.046
photoluminescence quantum yield (in CO): 0.006
photoluminescence quantum yield (in CS(C)=O): 0.037
photoluminescence quantum yield (in Cc1ccccc1): 0.337

photoluminescence quantum yield (in C1CCOC1): 0.0681
photoluminescence quantum yield (in CC#N): 0.00119
photoluminescence quantum yield (in CCOC(C)=O): 0.0842
photoluminescence quantum yield (in CS(C)=O): 0.00124
photoluminescence quantum yield (in ClC(Cl)Cl): 0.0946
Compound: N#Cc1cc2ccccc2oc1=N

photoluminescence quantum yield (in CC1CCCCC1): 0.09
photoluminescence quantum yield (in ClC(Cl)Cl): 0.03
Compound: c1cc(N2CCCC2)ccn1

Compound: O=C(/C=C(\O)c1ccc(N2c3ccccc3Oc3ccccc32)cc1)c1ccc(N2c3ccccc3Oc3ccccc32)cc1
photoluminescence quantum yield [1]: 0.68

photoluminescence quantum yield (in CCCCCCC): 0.00088
Compound: c1ccc2c3c(ccc2c1)-c1c2ccccc2cc2cccc-3c12

photoluminescence quantum yield (in ClCCl): 0.047
Compound: COc1cc(OC)c2cc(C#N)c(=N)oc2c1

photoluminescence quantum yield (in CC#N): 0.06
photoluminescence quantum yield (in CCO): 0.05
photoluminescence quantum yield (in ClCCl): 0.4
photoluminescence quantum yield (in O): 0.009
Compound: C=CCNc1ccc2c(ccc3oc4cc(=[N+](C)C)ccc-4nc32)c1

photoluminescence quantum yield [2]: 0.73
photoluminescence quantum yield (in c1cc(-n2c3ccccc3c3ccccc32)cc(-n2c3ccccc3c3ccccc32)c1): 0.73
Compound: O=c1c2ccccc2n2c3ccc(-c4ccccc4)cc3c(=O)c3cccc1c32

photoluminescence quantum yield (in CC#N): 0.009
Compound: CN(C)c1ccc(C#Cc2ccc3ccc(=O)oc3c2)cc1

photoluminescence quantum yield (in CCO): 0.6
photoluminescence quantum yield (in ClC(Cl)Cl): 0.31
Compound: CCOc1ccc2c(-c3nc(-c4ccccc4)no3)cc(=O)oc2c1

photoluminescence quantum yield (in ClCCl): 0.17
Compound: N#CC1N=c2cc3c4c(cccc4c2=NC1C#N)C(c1ccccc1)=C(c1ccccc1)O3 (stereo unspecified)

photoluminescence quantum yield (in CO): 0.03
Compound: N[C@@H](Cn1nnc2cc(-c3ccc(-c4ccsc4)cc3)ccc21)C(=O)O

photoluminescence quantum yield (in ClCCl): 0.14
Compound: COc1ccc(-c2ccc(/C=C/c3ccncn3)cc2)cc1

photoluminescence quantum yield (in ClCCl): 0.87
Compound: F[B-]1(F)n2c(c3c(c2-c2ccccc2)C2C=CC3CC2)C(c2ccccc2)=C2C3=C(C(c4ccccc4)=[N+]21)C1C=CC3CC1 (stereo unspecified)

Compound: O=C(c1ccc(C(=O)c2ccc(N3c4ccccc4Oc4ccccc43)cc2)cc1)c1ccc(N2c3ccccc3Oc3ccccc32)cc1
photoluminescence quantum yield (in Cc1ccccc1): 0.1
photoluminescence quantum yield [2]: 0.36

photoluminescence quantum yield (in ClCCl): 0.739
Compound: CC1=C(c2ccccc2)C(C)=[N+]2C1=C(c1c(-c3ccccn3)nc3ccccn13)c1c(C)cc(C)n1[B-]2(F)F

photoluminescence quantum yield [2]: 0.82
Compound: c1ccc(-c2nc(-c3ccccc3)nc(-c3ccc(-c4ccc5c(c4)C4(c6ccccc6-c6ccccc64)c4ccccc4N5c4ccccc4)cc3)n2)cc1

photoluminescence quantum yield (in CC#N): 0.44
photoluminescence quantum yield (in CO): 0.41
photoluminescence quantum yield (in ClCCl): 0.46
photoluminescence quantum yield (in OCC(O)CO): 0.39
Compound: CCCn1c2cccc3oc4cccc5c4[c+](c32)c2c1cccc2n5CCC

Compound: N#Cc1cc(C#N)c(-n2c3ccccc3c3cc(-c4ccc5c(c4)c4ccccc4n5-c4cc(-n5c6ccccc6c6ccccc65)c(C#N)cc4C#N)ccc32)cc1-n1c2ccccc2c2ccccc21
photoluminescence quantum yield (in O=P(c1ccccc1)(c1ccccc1)c1ccccc1Oc1ccccc1P(=O)(c1ccccc1)c1ccccc1): 0.87

photoluminescence quantum yield (in C1CCOC1): 0.65
Compound: CCCCCCc1ccsc1-c1cc2c3cc(-c4sccc4CCCCCC)c4nc(C(F)(F)C(F)(F)C(F)(F)F)nc5c(-c6sccc6CCCCCC)cc(c6cc(-c7sccc7CCCCCC)c7nc(C(F)(F)C(F)(F)C(F)(F)F)nc1c7c26)c3c45

photoluminescence quantum yield (in ClCCl): 0.81
Compound: CCN(CC)c1ccc2c(c1)OC1=[N+](c3ccc(I)cc3)[B-](F)(F)n3c(nc4ccccc43)C1=C2

photoluminescence quantum yield (in ClC(Cl)Cl): 0.17
Compound: N#Cc1c(C#N)c2ccccc2c2ccccc12

photoluminescence quantum yield (in C1CCOC1): 0.55
photoluminescence quantum yield (in CC(C)O): 0.6
photoluminescence quantum yield (in CO): 0.54
photoluminescence quantum yield (in CS(C)=O): 0.31
photoluminescence quantum yield (in ClC(Cl)Cl): 0.32
photoluminescence quantum yield (in ClCCl): 0.37
Compound: Cc1ccc(-n2c(-c3ccccc3O)nc(-c3ccccc3O)c2-c2ccccc2O)cc1

photoluminescence quantum yield (in ClCCl): 0.32
Compound: C(#Cc1ccc2c(c1)c1cc(C#Cc3ccccc3)ccc1n2-c1cc2ccccc2c2ccccc12)c1ccccc1

photoluminescence quantum yield (in C1CCOC1): 0.12
photoluminescence quantum yield (in CS(C)=O): 0.1
photoluminescence quantum yield (in ClCCl): 0.15
Compound: COc1cc(OC)cc(C2=C3C(C)=C(I)C(/C=C/c4c[nH]c5ccccc45)=[N+]3[B-](F)(F)n3c(/C=C/c4c[nH]c5ccccc45)c(I)c(C)c32)c1

Compound: O=C(Cc1ccccc1)OCc1ccc2c3cccc4cccc(c5cccc1c52)c43
photoluminescence quantum yield (in CCO): 0.92

Compound: CCC1=C(C)C2=C(c3cc(C4=C5C(C)=C(CC)C(C)=[N+]5[B-](F)(F)n5c(C)c(CC)c(C)c54)cc(C4=C5C(C)=C(CC)C(C)=[N+]5[B-](F)(F)n5c(C)c(CC)c(C)c54)c3)c3c(C)c(CC)c(C)n3[B-](F)(F)[N+]2=C1C
photoluminescence quantum yield (in C1CCOC1): 0.91
photoluminescence quantum yield (in CC#N): 0.62
photoluminescence quantum yield (in CN(C)C=O): 0.73
photoluminescence quantum yield (in Cc1ccccc1): 0.95
photoluminescence quantum yield (in ClC(Cl)Cl): 0.88

photoluminescence quantum yield (in C1CCCCC1): 0.421
photoluminescence quantum yield (in CC#N): 0.277
photoluminescence quantum yield (in CC(C)O): 0.398
photoluminescence quantum yield (in CCCCCC): 0.42
photoluminescence quantum yield (in CCCCCCCCCCCCCCCC): 0.429
photoluminescence quantum yield (in CCCCCCCCCCCCCCCCCl): 0.441
photoluminescence quantum yield (in CO): 0.305
Compound: COC(=O)c1ccc(C#Cc2ccccc2)cc1

photoluminescence quantum yield (in ClCCl): 0.43
Compound: C[Si]1(C)c2ccc(-c3ccc(N(c4ccccc4)c4ccccc4)cc3)cc2C=Cc2cc(-c3ccc(N(c4ccccc4)c4ccccc4)cc3)ccc21

photoluminescence quantum yield (in ClCCl): 0.05
Compound: COc1ccc(C#Cc2c3cc4ccccc4cc3c(C#C[Si](C(C)C)(C(C)C)C(C)C)c3cc4ccccc4cc23)cc1

photoluminescence quantum yield (in CC#N): 0.17 and 0.47
Compound: Cc1cc2nc3c(=O)n(C)c(=O)nc-3n(C)c2cc1C

photoluminescence quantum yield (in C1CCOC1): 0.061
Compound: N#Cc1cc(-n2c3ccccc3c3ccccc32)c(-n2c3ccccc3c3cc(Br)ccc32)cc1C#N
photoluminescence quantum yield [1]: 0.555

photoluminescence quantum yield (in C1COCCO1): 0.45
Compound: COc1ccc(C2=C/C(=C\c3ccc(C#N)cc3)C(=O)O2)cc1OC

Compound: N#CC(C#N)=Cc1ccc2nc(C#Cc3ccc(N(c4ccccc4)c4ccccc4)cc3)sc2c1
photoluminescence quantum yield (in Cc1ccccc1): 0.47

photoluminescence quantum yield (in CC#N): 0.0046
Compound: c1cc2c3c(cccc3c1)C(N1CCOCCNCCOCCOCC1)=N2

photoluminescence quantum yield (in C1CCCCC1): 0.08
Compound: CCCC1(CCC)c2cc(-c3cccc(Cc4ccc(/C=C/c5ccccc5)cc4)c3)ccc2-c2ccc(-c3cccc(Cc4ccc(/C=C/c5ccccc5)cc4)c3)cc21

Compound: Cc1nc(-c2ccc(-n3c4ccccc4c4ccccc43)cc2)cc(-c2ccc(-n3c4ccccc4c4ccccc43)cc2)n1
photoluminescence quantum yield (in C1CCOC1): 0.61
photoluminescence quantum yield (in CN(C)C=O): 0.73
photoluminescence quantum yield (in Cc1ccccc1): 0.65
photoluminescence quantum yield (in ClC(Cl)Cl): 0.61

Compound: CC1(C)OB(c2cc3ccc4cccc5ccc(c2)c3c45)OC1(C)C
photoluminescence quantum yield (in Cc1ccccc1): 0.72

photoluminescence quantum yield (in CO): 0.75
Compound: Cc1cc(C)c(B(c2cc(-c3ccccc3)sc2-c2sc(-c3ccccc3)cc2P(=O)(c2ccccc2)c2ccccc2)c2c(C)cc(C)cc2C)c(C)c1

photoluminescence quantum yield (in ClC(Cl)Cl): 0
Compound: Cc1oc(C)c2c1C=C(C=O)CC(C=O)=C2

photoluminescence quantum yield (in C1CCCCC1): 0.23
photoluminescence quantum yield (in CCOC(C)=O): 0.18
photoluminescence quantum yield (in CO): 0.16
Compound: c1ccc2cc(-n3cnc4ccccc43)ccc2c1

Compound: Oc1ccccc1C1=NC2c3cccc4cccc(c34)C2N1c1ccccc1 (stereo unspecified)
photoluminescence quantum yield (in Cc1ccccc1): 0.009

photoluminescence quantum yield (in CO): 0.24
Compound: Oc1cccc(-c2nc(-c3ccccc3)c(-c3ccccc3)[nH]2)c1

Compound: CCCCOC(=O)c1cc(Cl)c2c3c(Cl)cc4c5c(cc(Cl)c(c6c(Cl)cc(C(=O)OCCCC)c1c26)c53)C(=O)N(c1c(C(C)C)cccc1C(C)C)C4=O
photoluminescence quantum yield (in Cc1ccccc1): 0.89

photoluminescence quantum yield (in ClCCl): 0.63
Compound: Cc1nc(-c2ccccc2O)n2c1CCCC2

photoluminescence quantum yield (in CCOC(C)=O): 0.27
Compound: CC(C)(C)OC(=O)n1ccc2c3ccc4cccc5ccc(cc21)c3c54

photoluminescence quantum yield (in ClCCl): 0.0562
Compound: c1ccc(-n2nc(-c3ccc(N4c5ccccc5Sc5ccccc54)cc3)nc2-c2ccccn2)cc1
